In patent US20230172930A1, “USE OF COMPLEMENT FACTOR D INHIBITORS ALONE OR IN COMBINATION WITH ANTI-C5 ANTIBODIES FOR TREATMENT OF PAROXYSMAL NOCTURNAL HEMOGLOBINURIA” (Alexion Pharmaceuticals, Inc., priority 2020, published 2023):
Where “and” joins values, the source holds several entries; their conditions need not be identical. Identical values can stand only once.

Experiments:
[1] = Phase 2 study: PNH clone size and C3 fragment deposition on erythrocytes by flow cytometry (anti-human C3d antibody); assay type: in vivo
Protocol: (§1) FIGS. 4A-4D are graphs depicting the effect on complement biomarkers and PNH clone size. […] Arithmetic mean and standard derivation (SD) were shown for all but the clone size of C3d^+ PNH erythrocytes where geometric mean was used, and the range was shown at each time point. NHS, normal human serum; BL, baseline; LLN, lower limit normal; ULN, upper limit normal.
(§2) Pharmacodynamics were determined by measuring serum AP activity with AP hemolysis assay. Serum CP activity, Plasma Bb concentration, serum FD, and C3 concentrations were also monitored. Complement tests were conducted by a central lab using commercial kits, with the exception of AP hemolysis assay which was conducted internally for exploratory purposes. At each AP hemolysis run, a single normal human serum sample was included in addition to the patient serum samples so hemolysis values of individual patient serum samples could be standardized to the hemolysis value of the normal human serum sample. Finally, PNH clone size and C3 fragment deposition on erythrocytes was measured using flow cytometry with FITC conjugated anti-human C3d antibody.

[2] = system: PNH erythrocytes; experiment: as above; assay type: in vivo
Protocol: as §1, §2

[3] = system: PNH patients with an inadequate response to eculizumab; experiment: Phase 2 study: FACIT-Fatigue Scale V4 (score range 0-52, higher = improvement); assay type: in vivo, human; settings: for FACIT-Fatigue, mean: N=11
Description: This study utilized the validated quality of life instrument FACIT-Fatigue Scale (Version 4). This self-reporting instrument measures the severity of fatigue being experienced on a scale of 0 to 52 where a score of less than 30 represents severe fatigue and higher scores indicate improvement in fatigue. A 3-point change is clinically meaningful on this scale. A 10-point or greater change is highly significant on this scale. […] This constitutes an upper limit of the disclosure.

[4] = Phase 2 study: plasma danicopan pharmacokinetics (LC-MS/MS); assay type: in vivo, human
Description: The mean (% CV) Ctrough value was 105 (57) ng/mL during these intensive sampling days. Sampling at through times over the rest of the study duration under less controlled conditions yielded a mean (% CV) Ctrough value of 150 (59) ng/mL.

[5] = system: PNH patients with an inadequate response to eculizumab; experiment: Phase 2 study: safety and tolerability (TEAEs)
Description: After completing 24 weeks of treatment, patients entered a long-term extension.

[6] = N=11, Baseline, before danicopan, on eculizumab
[7] = Patient A, Baseline, before danicopan, on eculizumab 900 mg q14d
[8] = Patient A, Week 12, danicopan 150 mg TID + eculizumab 900 mg q14d
[9] = Patient A, Week 24, danicopan 150 mg TID + eculizumab 900 mg q14d
[10] = Patient B, Baseline, before danicopan, on eculizumab 1200 mg q14d
[11] = Patient B, Week 12, danicopan 100 mg TID + eculizumab 900 mg q14d
[12] = Patient B, Week 24, danicopan 100 mg TID + eculizumab 900 mg q14d
[13] = Patient C, Baseline, before danicopan, on eculizumab 900 mg q14d
[14] = Patient C, Week 12, danicopan 150 mg TID + eculizumab 900 mg q14d
[15] = Patient C, Week 24, danicopan 150 mg TID + eculizumab 900 mg q14d
[16] = Patient D, Baseline, before danicopan, on eculizumab 900 mg q14d
[17] = Patient D, Week 12, danicopan 150 mg TID + eculizumab 900 mg q14d
[18] = Patient D, Week 24, danicopan 150 mg TID + eculizumab 900 mg q14d
[19] = Patient E, Baseline, before danicopan, on eculizumab 1200 mg q14d
[20] = Patient E, Week 12, danicopan 150 mg TID + eculizumab 1200 mg q14d
[21] = Patient E, Week 24, danicopan 150 mg TID + eculizumab 1200 mg q14d
[22] = Patient F, Baseline, before danicopan, on eculizumab 900 mg q14d
[23] = Patient F, Week 12, danicopan 150 mg TID + eculizumab 900 mg q14d
[24] = Patient F, Week 24, danicopan 150 mg TID + eculizumab 900 mg q14d
[25] = Patient G, Baseline, before danicopan, on eculizumab 1500 mg q14d
[26] = Patient G, Week 12, danicopan 100 mg TID + eculizumab 1500 mg q14d
[27] = Patient G, Week 24, danicopan 100 mg TID + eculizumab 1500 mg q14d
[28] = Patient H, Baseline, before danicopan, on eculizumab 900 mg q14d
[29] = Patient H, Week 12, danicopan 200 mg TID + eculizumab 900 mg q14d
[30] = Patient H, Week 24, danicopan 200 mg TID + eculizumab 900 mg q14d
[31] = Patient I, Baseline, before danicopan, on eculizumab 900 mg q14d
[32] = Patient I, Week 12, danicopan 100 mg TID + eculizumab 900 mg q14d
[33] = Patient I, Week 24, danicopan 200 mg TID + eculizumab 900 mg q14d
[34] = Patient J, Baseline, before danicopan, on eculizumab 1200 mg q14d
[35] = Patient J, Week 12, danicopan 100 mg TID + eculizumab 1200 mg q14d
[36] = Patient J, Week 24, danicopan 200 mg TID + eculizumab 1200 mg q14d
[37] = Patient K, Baseline, before danicopan, on eculizumab 900 mg q14d
[38] = Patient K, Week 12, danicopan 100 mg TID + eculizumab 900 mg q14d
[39] = Patient K, Week 24, danicopan 150 mg TID + eculizumab 900 mg q14d

CC(=O)c1nn(CC(=O)N2C[C@H](F)C[C@H]2C(=O)Nc2cccc(Br)n2)c2ccc(-c3cnc(C)nc3)cc12 [Danicopan, danicopan]
clone size of PNH granulocytes, mean±SD ([1]; Week 24): 95±7.2%
clone size of PNH granulocytes, mean±SD ([1]; baseline): 92±9.2%
PNH RBC clone size, mean ([2]; N=7, Week 24, danicopan 100-200 mg TID + eculizumab): 84±22.1% and 84%
C3d^+ PNHRBCs, geometric mean [2, 6]: 22% and 22.2%
PNH RBC clone size, mean [2, 6]: 54±24.9% and 54%
C3d^+ PNHRBCs, geometric mean ([2]; N=11, Week 24, danicopan 100-200 mg TID + eculizumab): 6.7% and 6.68%
C3d^+ PNHRBCs [2, 7]: 6.30%
PNH RBC clone size [2, 7]: 41%
PNH RBC clone size [2, 8]: 83%
C3d^+ PNHRBCs [2, 9]: 2.20%
C3d^+ PNHRBCs [2, 10]: 8.20%
PNH RBC clone size [2, 10]: 80%
PNH RBC clone size [2, 11]: 89%
C3d^+ PNHRBCs [2, 12]: 1.00%
C3d^+ PNHRBCs [2, 13]: 17.5%
PNH RBC clone size [2, 13]: 22%
C3d^+ PNHRBCs [2, 14]: 18.6%
PNH RBC clone size [2, 14]: 59%
C3d^+ PNHRBCs [2, 15]: 16.7%
PNH RBC clone size [2, 15]: 51%
C3d^+ PNHRBCs [2, 16]: 15.9%
PNH RBC clone size [2, 16]: 52%
C3d^+ PNHRBCs [2, 17]: 0.200%
PNH RBC clone size [2, 17]: 99%
C3d^+ PNHRBCs [2, 18]: 5.20%
PNH RBC clone size [2, 18]: 100%
C3d^+ PNHRBCs [2, 19]: 21.3%
PNH RBC clone size [2, 19]: 21%
C3d^+ PNHRBCs [2, 20]: 11.8%
PNH RBC clone size [2, 20]: 37%
C3d^+ PNHRBCs [2, 21]: 4.90%
PNH RBC clone size [2, 21]: 53%
C3d^+ PNHRBCs [2, 22]: 71.0%
PNH RBC clone size [2, 22]: 95%
C3d^+ PNHRBCs [2, 23]: 48.0%
PNH RBC clone size [2, 23]: 99%
C3d^+ PNHRBCs [2, 24]: 53.4%
PNH RBC clone size [2, 24]: 98%
C3d^+ PNHRBCs [2, 25]: 80.0%
PNH RBC clone size [2, 25]: 62.8%
C3d^+ PNHRBCs [2, 26]: 29.4%
PNH RBC clone size [2, 26]: 90.4%
C3d^+ PNHRBCs [2, 27]: 57.0%
PNH RBC clone size [2, 27]: 96.0%
C3d^+ PNHRBCs [2, 28]: 38.8%
PNH RBC clone size [2, 28]: 19%
C3d^+ PNHRBCs [2, 29]: 14.9%
PNH RBC clone size [2, 29]: 71%
C3d^+ PNHRBCs [2, 30]: 22.8%
C3d^+ PNHRBCs [2, 31]: 13.6%
PNH RBC clone size [2, 31]: 73%
C3d^+ PNHRBCs [2, 32]: 0.400%
PNH RBC clone size [2, 32]: 95%
C3d^+ PNHRBCs [2, 33]: 0.100%
C3d^+ PNHRBCs [2, 34]: 34.3%
PNH RBC clone size [2, 34]: 60%
C3d^+ PNHRBCs [2, 35]: 59.5%
PNH RBC clone size [2, 35]: 99%
C3d^+ PNHRBCs [2, 36]: 28.7%
PNH RBC clone size [2, 36]: 99%
C3d^+ PNHRBCs [2, 37]: 20.2%
PNH RBC clone size [2, 37]: 55%
C3d^+ PNHRBCs [2, 38]: 44.2%
PNH RBC clone size [2, 38]: 84%
C3d^+ PNHRBCs [2, 39]: 6.30%
PNH RBC clone size [2, 39]: 91%
FACIT-Fatigue, mean ([3]; Baseline, before danicopan, on eculizumab): 34
FACIT-Fatigue, mean ([3]; Week 24, danicopan 100-200 mg TID + eculizumab): 45
FACIT-Fatigue [3, 7]: 33
FACIT-Fatigue [3, 8]: 48
FACIT-Fatigue [3, 9]: 52
FACIT-Fatigue [3, 10]: 45
FACIT-Fatigue [3, 11]: 49
FACIT-Fatigue [3, 12]: 48
FACIT-Fatigue [3, 13]: 17
FACIT-Fatigue [3, 14]: 36
FACIT-Fatigue [3, 15]: 26
FACIT-Fatigue [3, 16]: 18
FACIT-Fatigue [3, 17]: 41
FACIT-Fatigue [3, 18]: 41
FACIT-Fatigue [3, 19]: 42
FACIT-Fatigue [3, 20]: 25
FACIT-Fatigue [3, 21]: 38
FACIT-Fatigue score ([3]; Patient F, Baseline): 9 points
FACIT-Fatigue improvement ([3]; Patient F, Baseline to Week 24): 43 point
FACIT-Fatigue [3, 22]: 9
FACIT-Fatigue [3, 23]: 48
FACIT-Fatigue score ([3]; Patient F, Week 24): 52 points
FACIT-Fatigue [3, 24]: 52
FACIT-Fatigue [3, 25]: 28
FACIT-Fatigue [3, 26]: 44
FACIT-Fatigue [3, 27]: 38
FACIT-Fatigue [3, 28]: 47
FACIT-Fatigue [3, 29]: 49
FACIT-Fatigue [3, 30]: 49
FACIT-Fatigue [3, 31]: 48
FACIT-Fatigue [3, 32]: 50
FACIT-Fatigue [3, 33]: 49
FACIT-Fatigue [3, 34]: 49
FACIT-Fatigue [3, 35]: 51
FACIT-Fatigue [3, 36]: 51
FACIT-Fatigue [3, 37]: 33
FACIT-Fatigue [3, 38]: 46
FACIT-Fatigue [3, 39]: 50
mean increase in FACIT-Fatigue score ([3]; at 24 Weeks relative to Baseline on eculizumab): 11 points
Ctrough, mean (% CV) ([4]; intensive sampling days, Week 7): 105 (57) ng/mL
Ctrough, mean (% CV) ([4]; trough sampling over the rest of the study, less controlled conditions): 150 (59) ng/mL
discontinuations due to TEAEs ([5]; 11 patients completing treatment): no discontinuations due to TEAEs
Grade 3 direct bilirubin elevation with grade 1 ALT elevation ([5]; Day 70, resolved by Day 77, attributed to breakthrough hemolysis): One patient experienced a Grade 3 direct bilirubin elevation
severe adverse event of pneumonia requiring hospitalization ([5]; Day 145, recovered Day 152, relationship to study drug considered unlikely): The second patient experienced a severe adverse event of pneumonia
Number of Patients Reporting a TEAE, % ([5]; N=11): (100) %
Abdominal pain, % ([5]; TEAE, N=11): (18) %
Contusion, % ([5]; TEAE, N=11): (18) %
Cough, % ([5]; TEAE, N=11): (18) %
Fatigue, % ([5]; TEAE, N=11): (18) %
Headache, % ([5]; TEAE, N=11): (27) %
Nasopharyngitis, % ([5]; TEAE, N=11): (18) %
Nausea, % ([5]; TEAE, N=11): (18) %
Oropharyngeal, % ([5]; TEAE, N=11): (18) %
Pain in extremity, % ([5]; TEAE, N=11): (18) %
tolerability ([5]; danicopan 100-200 mg TID + eculizumab, 24 weeks): generally well tolerated
discontinuation due to serious adverse event (worsening pulmonary hypertension/edema) ([5]; of twelve enrolled, considered unlikely related to danicopan): One discontinued after 2 doses
TEAEs mild to moderate in severity ([5]; share of treatment TEAEs): 96%
